Measurements published in patent US12383556B2, “Methods of treating Sjögren's syndrome using a Bruton's tyrosine kinase inhibitor” (NOVARTIS AG, priority 2019, dated 2025).
Like-named read-outs stand apart in the source and are kept apart here.

Experiment: First-in-human Part 2 multiple ascending dose q.d. blood and urine PK
Format: in vivo
Settings: for Amount recovered / Amount recovered (%): Day 12, urine; for drug accumulation ratio (Racc): day 12 vs day 1, q.d.; for CL renal: blood and urine, Day 12, read-out: Renal clearance
Text: First-in-human study in up to approximately 168 healthy volunteers (HVs), of which 64 (in Parts 2 & 4) had asymptomatic atopic diathesis. • Part 1 was a double-blind (subject and investigator blind, sponsor unblinded), placebo-controlled single ascending dose (SAD) escalation study of 10 cohorts (N=80) • Part 2 was a double-blind (subject and investigator blind, sponsor unblinded), placebo-controlled multiple ascending dose (MAD) (13 doses over 12 days) escalation study employing once daily dosing in 6 cohorts in healthy volunteers with asymptomatic atopic diathesis (N=48) • Part 3 was a single dose open-label crossover food effect study in 12 HVs • Part 4 was a double-blind (subject and investigator blind, sponsor unblinded), placebo-controlled multiple dose (25 doses over 12 days) study employing twice daily dosing in 2 cohorts of healthy volunteers with asymptomatic atopic diathesis (N=16)
In Parts 2 and 4, subjects were admitted on Day −2 or −1 for baseline safety assessments and to confirm eligibility. Eligible subjects received the first dose of compound (I) under fasting conditions on Day 1, and continued to take study medication under fasting conditions up to and including Day 12. Subjects were domiciled from Day −2 or −1 until the morning of Day 16, which equals 96 hours after the last dose of compound (I) was received. In Parts 2 and 4, the study medication was given once daily and twice daily respectively (details are found in the schedule of assessments).
Subjects were assigned to one of the following 6 cohorts. In each cohort, 8 subjects were randomized to either compound (I) or matching placebo in a 6:2 ratio. • Cohort 1: multiple oral doses of 10 mg compound (I) or matching placebo • Cohort 2: multiple oral doses of 25 mg compound (I) or matching placebo • Cohort 3: multiple oral doses of 50 mg compound (I) or matching placebo • Cohort 4: multiple oral doses of 100 mg compound (I) or matching placebo • Cohort 5: multiple oral doses of 400 mg compound (I) or matching placebo • Cohort 6: multiple oral doses of up to 600 mg compound (I) or matching placebo
Pharmacokinetic samples were obtained in blood and evaluated in all subjects at all dose levels. The samples from placebo subjects were not analyzed. The samples for PK assessments from subjects were collected at time points defined in the study. Compound (I) concentrations were determined in blood by a validated LC-MS/MS method.

[1] = 10 mg qd, Day 12, blood, Mean ± SD
[2] = 25 mg qd, Day 12, blood, Mean ± SD
[3] = 50 mg qd, Day 12, blood, Mean ± SD
[4] = 50 mg qd, Day 12, blood, Median (Min-Max)
[5] = 100 mg qd, Day 1, blood, Mean ± SD
[6] = 100 mg qd, Day 1, blood, Median (Min-Max)
[7] = 100 mg qd, Day 12, blood, Mean ± SD
[8] = 400 mg qd, Day 1, blood, Mean ± SD
[9] = 400 mg qd, Day 12, blood, Mean ± SD
[10] = 600 mg qd, Day 1, blood, Mean ± SD
[11] = 600 mg qd, Day 12, blood, Mean ± SD

C=CC(=O)N(C)CCOc1c(N)ncnc1-c1cc(F)cc(NC(=O)c2ccc(C3CC3)cc2F)c1C [Compound of Formula (I), N-(3-(6-Amino-5-(2-(N-methylacrylamido)ethoxy)pyrimidin-4-yl)-5-fluoro-2-methylphenyl)-4-cyclopropyl-2-fluorobenzamide]
Cmax (10 mg qd, Day 1, blood, Mean ± SD): 8.40 ± 2.02 ng/mL | CLss/F [1]: 425 ± 64.8 L/h | Cmax [1]: 18.2 ± 5.90 ng/mL | CLss/F (10 mg qd, Day 12, blood, Median (Min-Max)): 423 (341-529) L/h | Amount recovered (10 mg qd, Mean ± SD): 0.0663 ± 0.0309 mg | Amount recovered (%) (10 mg qd, Mean ± SD): 0.663 ± 0.309% | Amount recovered (10 mg qd, Median (Min-Max)): 0.0630 mg | Cmax (25 mg qd, Day 1, blood, Mean ± SD): 40.9 ± 21.6 ng/mL | CLss/F [2]: 307 ± 253 L/h | Cmax [2]: 85.9 ± 31.5 ng/mL | CLss/F (25 mg qd, Day 12, blood, Median (Min-Max)): 248 (129-809) L/h | Amount recovered (25 mg qd, Mean ± SD): 0.114 ± 0.0706 mg | Amount recovered (%) (25 mg qd, Mean ± SD): 0.456 ± 0.283% | Cmax (50 mg qd, Day 1, blood, Mean ± SD): 76.5 ± 22.0 ng/mL | CLss/F [3]: 268 ± 92.8 L/h | Cmax [3]: 102 ± 22.0 ng/mL | CLss/F [4]: 276 (154-395) L/h | Cmax [4]: 100 (73.3-131) ng/mL | Amount recovered (50 mg qd, Mean ± SD): 0.233 ± 0.0880 mg | Amount recovered (%) (50 mg qd, Mean ± SD): 0.467 ± 0.176% | AUC0-24 [5]: 315 ± 91.5 ng·h/mL | AUClast [5]: 311 ± 89.1 ng·h/mL | Cmax [5]: 187 ± 85.0 ng/mL | MRT [5]: 2.79 ± 1.28 h | AUC0-24 [6]: 338 (168-419) h*ng/mL | AUClast [6]: 333 (168-416) h*ng/mL | Cmax [6]: 189 (75.6-285) ng/mL | AUC0-24 [7]: 485 ± 179 ng·h/mL | AUClast [7]: 488 ± 172 ng·h/mL | CLss/F [7]: 198 ± 88.7 L/h | Cmax [7]: 233 ± 84.1 ng/mL | CLss/F (100 mg qd, Day 12, blood, Median (Min-Max)): 166 (129-298) L/h | Amount recovered (100 mg qd, Mean ± SD): 0.648 ± 0.330 mg | Amount recovered (%) (100 mg qd, Mean ± SD): 0.648 ± 0.330% | AUC0-24 [8]: 977 ± 378 ng·h/mL | AUClast [8]: 973 ± 379 ng·h/mL | Cmax [8]: 518 ± 89.1 ng/mL | MRT [8]: 3.02 ± 1.11 h | Cmax (400 mg qd, Day 1, blood, Median (Min-Max)): 513 (383-622) ng/mL | AUC0-24 [9]: 1280 ± 577 ng·h/mL | AUClast [9]: 1300 ± 602 ng·h/mL | CLss/F [9]: 366 ± 150 L/h | Cmax [9]: 551 ± 263 ng/mL | CLss/F (400 mg qd, Day 12, blood, Median (Min-Max)): 351 (177-591) L/h | Amount recovered (400 mg qd, Mean ± SD): 1.25 ± 0.647 mg | Amount recovered (%) (400 mg qd, Mean ± SD): 0.313 ± 0.162% | AUC0-24 [10]: 1080 ± 377 ng·h/mL | AUClast [10]: 1080 ± 377 ng·h/mL | Cmax [10]: 550 ± 87.6 ng/mL | MRT [10]: 3.14 ± 0.580 h | Cmax (600 mg qd, Day 1, blood, Median (Min-Max)): 545 (461-691) ng/mL | AUC0-24 [11]: 1230 ± 356 ng·h/mL | AUClast [11]: 1240 ± 341 ng·h/mL | CLss/F [11]: 521 ± 131 L/h | Cmax [11]: 563 ± 229 ng/mL | CLss/F (600 mg qd, Day 12, blood, Median (Min-Max)): 569 (345-661) L/h | Amount recovered (600 mg qd, Mean ± SD): 1.54 ± 0.915 mg | Amount recovered (%) (600 mg qd, Mean ± SD): 0.257 ± 0.153% | drug accumulation ratio (Racc) (high dose): 1.2 | drug accumulation ratio (Racc) (low dose): 5 | CL renal (human, oral, 10 mg, 10 mg qd, Mean ± SD): 45.3 ± 18 mL/min | CL renal (human, oral, 10 mg, 10 mg qd, Median (Min-Max)): 41.6 mL/min | CL renal (human, oral, 25 mg, 25 mg qd, Mean ± SD): 16.8 ± 6.81 mL/min | CL renal (human, oral, 25 mg, 25 mg qd, Median (Min-Max)): 18.9 mL/min | CL renal (human, oral, 50 mg, 50 mg qd, Mean ± SD): 20.4 ± 2.4 mL/min | CL renal (human, oral, 50 mg, 50 mg qd, Median (Min-Max)): 20.5 mL/min | CL renal (human, oral, 100 mg, 100 mg qd, Mean ± SD): 21.6 ± 5.41 mL/min | CL renal (human, oral, 100 mg, 100 mg qd, Median (Min-Max)): 21.1 mL/min | CL renal (human, oral, 400 mg, 400 mg qd, Mean ± SD): 16.9 ± 7.13 mL/min | CL renal (human, oral, 400 mg, 400 mg qd, Median (Min-Max)): 14.5 mL/min | CL renal (human, oral, 600 mg, 600 mg qd, Mean ± SD): 20 ± 8.25 mL/min | CL renal (human, oral, 600 mg, 600 mg qd, Median (Min-Max)): 18.1 mL/min | AUC(0-t) (human, blood, oral, 10 mg, 10 mg qd, Day 1, blood, Mean ± SD, read-out: AUC0-24): 4.94 ± 1.35 ng·h/mL | AUC(0-t) (human, blood, oral, 10 mg, 10 mg qd, Day 1, blood, Mean ± SD, read-out: AUClast): 4.17 ± 1.38 ng·h/mL | MRT (human, blood, oral, 10 mg, 10 mg qd, Day 1, blood, Mean ± SD, read-out: MRT): 0.761 ± 0.151 h | Tmax (human, blood, oral, 10 mg, 10 mg qd, Day 1, blood, Median (Min-Max)): 31 min | AUC(0-t) (human, blood, oral, 10 mg, 10 mg qd, Day 1, blood, Median (Min-Max), read-out: AUC0-24): 4.94 ng·h/mL
